{"source": "paper PMC12203311", "about": "“Design, synthesis, in silico and in vitro evaluation of pyrrole–indole hybrids as dual tubulin and aromatase inhibitors with potent anticancer activities” (RSC Advances, 2025)", "assay_in_all_cases": "NCI60 five-dose screen", "key": {"[1]": {"test_system": "ACHN", "assay_type": "cell-based", "details": "Homo sapiens, renal cancer"}, "[2]": {"test_system": "OVCAR-4", "assay_type": "cell-based", "details": "Homo sapiens, OVCAR-4, ovarian cancer"}, "[3]": {"test_system": "OVCAR-8", "assay_type": "cell-based", "details": "Homo sapiens, OVCAR-8, ovarian cancer"}, "[4]": {"test_system": "MDA-MB-231/ATCC", "assay_type": "cell-based", "details": "Homo sapiens, breast cancer"}, "[5]": {"test_system": "BT-549", "assay_type": "cell-based", "details": "Homo sapiens, BT-549, breast cancer"}, "[6]": {"test_system": "SN12C", "assay_type": "cell-based", "details": "Homo sapiens, renal cancer"}, "[7]": {"test_system": "NCI/ADR-RES", "assay_type": "cell-based, human", "details": "Homo sapiens, ovarian cancer"}, "[8]": {"test_system": "EKVX", "assay_type": "cell-based", "details": "Homo sapiens, NSC lung cancer"}, "[9]": {"test_system": "COLO 205", "assay_type": "cell-based, human", "details": "Homo sapiens"}, "[10]": {"test_system": "NCI-H23", "assay_type": "cell-based", "details": "Homo sapiens, NCI-H23, NSC lung cancer"}, "[11]": {"test_system": "MCF7", "assay_type": "cell-based", "details": "Homo sapiens, MCF7, breast cancer"}, "[12]": {"test_system": "NCI-H522", "assay_type": "cell-based", "details": "Homo sapiens, NCI-H522, NSC lung cancer"}, "[13]": {"test_system": "SF-295", "assay_type": "cell-based", "details": "Homo sapiens, SF-295, CNS cancer"}, "[14]": {"test_system": "SNB-75", "assay_type": "cell-based", "details": "Homo sapiens, SNB-75, CNS cancer"}, "[15]": {"test_system": "HOP-62", "assay_type": "cell-based", "details": "Homo sapiens, HOP-62, NSC lung cancer"}, "[16]": {"test_system": "UACC-62", "assay_type": "cell-based", "details": "Homo sapiens, UACC-62, melanoma"}, "[17]": {"test_system": "HL-60 (TB)", "assay_type": "cell-based", "details": "Homo sapiens, leukemia"}, "[18]": {"test_system": "SK-OV-3", "assay_type": "cell-based", "details": "Homo sapiens, SK-OV-3, ovarian cancer"}, "[19]": {"test_system": "NCI-H460", "assay_type": "cell-based", "details": "Homo sapiens, NCI-H460, NSC lung cancer"}, "[20]": {"test_system": "U251", "assay_type": "cell-based", "details": "Homo sapiens, U-251, U251, CNS cancer"}, "[21]": {"test_system": "SK-MEL-5", "assay_type": "cell-based, human", "details": "Homo sapiens"}, "[22]": {"test_system": "DU-145", "assay_type": "cell-based", "details": "Homo sapiens, DU-145, prostate cancer"}, "[23]": {"test_system": "PC-3", "assay_type": "cell-based", "details": "Homo sapiens, PC-3, prostate cancer"}, "[24]": {"test_system": "HCT-15", "assay_type": "cell-based", "details": "Homo sapiens, HCT-15, colon cancer"}, "[25]": {"test_system": "TK-10", "assay_type": "cell-based", "details": "Homo sapiens, TK-10, renal cancer"}, "[26]": {"test_system": "SNB-19", "assay_type": "cell-based", "details": "Homo sapiens, SNB-19, CNS cancer"}, "[27]": {"test_system": "SK-MEL-2", "assay_type": "cell-based", "details": "Homo sapiens, SK-MEL-2, melanoma"}, "[28]": {"test_system": "SK-MEL-28", "assay_type": "cell-based", "details": "Homo sapiens, SK-MEL-28, melanoma"}, "[29]": {"test_system": "IGROV1", "assay_type": "cell-based", "details": "Homo sapiens, IGROV-1; IGROV1, ovarian cancer"}, "[30]": {"test_system": "LOX IMVI", "assay_type": "cell-based", "details": "Homo sapiens, melanoma"}, "[31]": {"test_system": "RPMI-8226", "assay_type": "cell-based", "details": "Homo sapiens, RPMI-8226, leukemia"}, "[32]": {"test_system": "K-562", "assay_type": "cell-based", "details": "Homo sapiens, K562, K-562, leukemia"}, "[33]": {"test_system": "OVCAR-3", "assay_type": "cell-based", "details": "Homo sapiens, OVCAR-3, ovarian cancer"}, "[34]": {"test_system": "UACC-257", "assay_type": "cell-based", "details": "Homo sapiens, UACC-257, melanoma"}, "[35]": {"test_system": "CAKI-1", "assay_type": "cell-based", "details": "Homo sapiens, CAKI-1, renal cancer"}, "[36]": {"test_system": "A549/ATCC", "assay_type": "cell-based", "details": "Homo sapiens, NSC lung cancer"}, "[37]": {"details": "read-out: LC50 (the source's name)"}}, "data": [{"smiles": "O=C(N/N=C/c1cc[nH]c1)c1[nH]c2ccc(Br)cc2c1-c1ccccc1", "note": "[Derivative 3b, (E)-N′-((1H-Pyrrol-3-yl)methylene)-5-bromo-3-phenyl-1H-indole-2-carbohydrazide]", "values": [{"measurement": "GI50", "setting": "[1]", "result": 1.71, "unit": "µM"}, {"measurement": "CC50", "setting": "[1]; [37]", "result": 39, "unit": "µM"}, {"measurement": "GI50", "setting": "[2]", "result": 4.82, "unit": "µM"}, {"measurement": "CC50", "setting": "[2]; [37]", "result": 45.2, "unit": "µM"}, {"measurement": "GI50", "setting": "[3]", "result": 1.21, "unit": "µM"}, {"measurement": "CC50", "setting": "[3]; [37]", "result": 38.6, "unit": "µM"}, {"measurement": "GI50", "setting": "[4]", "result": 1.62, "unit": "µM"}, {"measurement": "CC50", "setting": "[4]; [37]", "result": 26.4, "unit": "µM"}, {"measurement": "GI50", "setting": "[5]", "result": 4.53, "unit": "µM"}, {"measurement": "CC50", "setting": "[5]; [37]", "result": 52.3, "unit": "µM"}, {"measurement": "GI50", "setting": "[6]", "result": 1.49, "unit": "µM"}, {"measurement": "CC50", "setting": "[6]; [37]", "result": 37.7, "unit": "µM"}, {"measurement": "GI50", "setting": "[7]", "result": 0.636, "unit": "µM"}, {"measurement": "CC50", "setting": "[7]; [37]", "result": 27.1, "unit": "µM"}, {"measurement": "GI50", "setting": "[8]", "result": 4.41, "unit": "µM"}, {"measurement": "CC50", "setting": "[8]; [37]", "result": 41.7, "unit": "µM"}, {"measurement": "CC50", "setting": "[9]; COLO 205, COLO 205, colon cancer, read-out: LC50 (the source's name)", "result": 20.4, "unit": "µM"}, {"measurement": "GI50", "setting": "[9]; COLO 205, colon cancer", "result": 1.23, "unit": "µM"}, {"measurement": "GI50", "setting": "[10]", "result": 1.87, "unit": "µM"}, {"measurement": "CC50", "setting": "[10]; [37]", "result": 33.9, "unit": "µM"}, {"measurement": "GI50", "setting": "[11]", "result": 0.436, "unit": "µM"}, {"measurement": "CC50", "setting": "[11]; [37]", "result": 49.8, "unit": "µM"}, {"measurement": "GI50", "setting": "[12]", "result": 0.925, "unit": "µM"}, {"measurement": "CC50", "setting": "[12]; [37]", "result": 24, "unit": "µM"}, {"measurement": "GI50", "setting": "[13]", "result": 1.94, "unit": "µM"}, {"measurement": "CC50", "setting": "[13]; [37]", "result": 33.8, "unit": "µM"}, {"measurement": "GI50", "setting": "[14]", "result": 0.88, "unit": "µM"}, {"measurement": "CC50", "setting": "[14]; [37]", "result": 32, "unit": "µM"}, {"measurement": "GI50", "setting": "[15]", "result": 2.01, "unit": "µM"}, {"measurement": "CC50", "setting": "[15]; [37]", "result": 61.4, "unit": "µM"}, {"measurement": "GI50", "setting": "[16]", "result": 1.03, "unit": "µM"}, {"measurement": "CC50", "setting": "[16]; [37]", "result": 41.3, "unit": "µM"}, {"measurement": "GI50", "setting": "[17]", "result": 0.598, "unit": "µM"}, {"measurement": "CC50", "setting": "[17]; [37]", "result": "> 100", "unit": "µM"}, {"measurement": "GI50", "setting": "[18]", "result": 5.59, "unit": "µM"}, {"measurement": "CC50", "setting": "[18]; [37]", "result": 71.9, "unit": "µM"}, {"measurement": "GI50", "setting": "[19]", "result": 0.657, "unit": "µM"}, {"measurement": "CC50", "setting": "[19]; [37]", "result": 46, "unit": "µM"}, {"measurement": "GI50", "setting": "[20]", "result": 2.08, "unit": "µM"}, {"measurement": "CC50", "setting": "[20]; [37]", "result": 40.8, "unit": "µM"}, {"measurement": "CC50", "setting": "[21]; SK-MEL-5, SK-MEL-5, melanoma, read-out: LC50 (the source's name)", "result": 14.6, "unit": "µM"}, {"measurement": "GI50", "setting": "[21]; SK-MEL-5, melanoma", "result": 1.1, "unit": "µM"}, {"measurement": "GI50", "setting": "[22]", "result": 1.95, "unit": "µM"}, {"measurement": "CC50", "setting": "[22]; [37]", "result": 34.7, "unit": "µM"}, {"measurement": "GI50", "setting": "[23]", "result": 2, "unit": "µM"}, {"measurement": "CC50", "setting": "[23]; [37]", "result": "> 100", "unit": "µM"}, {"measurement": "GI50", "setting": "[24]", "result": 0.918, "unit": "µM"}, {"measurement": "CC50", "setting": "[24]; [37]", "result": 34, "unit": "µM"}, {"measurement": "GI50", "setting": "[25]", "result": 11.1, "unit": "µM"}, {"measurement": "CC50", "setting": "[25]; [37]", "result": 58, "unit": "µM"}, {"measurement": "GI50", "setting": "[26]", "result": 2.55, "unit": "µM"}, {"measurement": "CC50", "setting": "[26]; [37]", "result": 39.8, "unit": "µM"}, {"measurement": "GI50", "setting": "[27]", "result": 2.48, "unit": "µM"}, {"measurement": "CC50", "setting": "[27]; [37]", "result": 38.4, "unit": "µM"}, {"measurement": "GI50", "setting": "[28]", "result": 5.75, "unit": "µM"}, {"measurement": "CC50", "setting": "[28]; [37]", "result": 44.4, "unit": "µM"}, {"measurement": "GI50", "setting": "[29]", "result": 1.27, "unit": "µM"}, {"measurement": "GI50", "setting": "[30]", "result": 0.916, "unit": "µM"}, {"measurement": "CC50", "setting": "[30]; [37]", "result": 38.7, "unit": "µM"}, {"measurement": "GI50", "setting": "[31]", "result": 1.43, "unit": "µM"}, {"measurement": "CC50", "setting": "[31]; [37]", "result": "> 100", "unit": "µM"}, {"measurement": "GI50", "setting": "[32]", "result": 0.429, "unit": "µM"}, {"measurement": "CC50", "setting": "[32]; [37]", "result": 97, "unit": "µM"}, {"measurement": "GI50", "setting": "[33]", "result": 1.09, "unit": "µM"}, {"measurement": "CC50", "setting": "[33]; [37]", "result": 31.9, "unit": "µM"}, {"measurement": "GI50", "setting": "[34]", "result": 8.22, "unit": "µM"}, {"measurement": "CC50", "setting": "[34]; [37]", "result": 47.8, "unit": "µM"}, {"measurement": "GI50", "setting": "[35]", "result": 0.776, "unit": "µM"}, {"measurement": "CC50", "setting": "[35]; [37]", "result": 44.1, "unit": "µM"}, {"measurement": "GI50", "setting": "[36]", "result": 1.61, "unit": "µM"}, {"measurement": "CC50", "setting": "[36]; [37]", "result": 52.6, "unit": "µM"}]}]}
